Patent US20150331992A1, “CANCER PROGNOSIS AND THERAPY BASED ON SYNTHEIC LETHALITY” (Ramot at Tel-Aviv University Ltd., priority 2014, published 2015)

System: VHL-deficient and VHL-restored renal carcinoma cells (RCC4)
Assay: Growth inhibition of VHL-deficient vs VHL-restored renal cells by drugs at mid-effective concentration
Assay type: cell-based
Conditions: mid-effective concentration of each drug; both cell lines in triplicates; FIG. 5
Procedure: A range of concentrations for each drug were tested to identify a suitable working concentration in which there was an effect on cells growth, but not complete death (which is more likely to be due to non-specific toxicity).

| Compound | Sensitivity (percentage of growth inhibition) of VHL-deficient cells compared to isogenic cells in which pVHL was restored |
| --- | --- |
| C[N+]1(CCCCC[N+]2(C)CCCC2)CCCC1 [Pentolinium] | significantly more sensitive |
| COc1ccc(CCN(C)CCCC(C#N)(c2ccc(OC)c(OC)c2)C(C)C)cc1OC (centres unmarked) [Verapamil] | significantly more sensitive |
| Nc1ccncc1 [Dalfampridine] | significantly more sensitive |
| CN(C)CCCN1c2ccccc2CCc2ccccc21 [Imipramine] | significantly more sensitive |
| CN(C)CCC=C1c2ccccc2CCc2ccccc21 [Amitriptyline] | significantly more sensitive |
